Where two headings read alike, the source gives them in different places.
Key:
[1] = test system: duration of xylazine/ketamine-induced anesthesia; assay: Xylazine/ketamine-induced anesthesia (surrogate of emesis); type: in vivo, BALB/c mice; conditions: mice
Protocol: According to a previously described method and modified by us, hesperidin, hesperidin-3′-O-methylether (each 300 μmol/kg, subcutaneously (s.c.)), or Ro 20-1724 (0.01∼1 μmol/kg, s.c.), a reference drug, was, respectively, injected into 8∼12-week-old female BALB/c mice 1, 1 or 0.25 h prior to an i.p. injection of xylazine (10 mg/kg)/ketamine (70 mg/kg). The vehicle (control) for hesperidin, hesperidin-3′-O-methylether, or Ro 20-1724 was a mixture of DMSO : PEG 400 : saline (1 : 1 : 8, v/v). After the loss of the righting reflex (i.e., when a mouse remained on its back and no longer spontaneously righted itself to a prone position), the duration of anesthesia was measured until its return as the endpoint.

[2] = test system: PDE4; assay: PDE4 activity in homogenate of guinea pig lungs or hearts (PDE4L); type: biochemical; conditions: guinea pig lung or heart homogenate; read-out: IC50 for PDE4 inhibition (PDE4L value)
Protocol: (§1) Activities of PDE1∼5 in the homogenate of guinea pig lungs or hearts were measured by a two-step procedure according to the previous method, using cAMP with [^3 H]-cAMP or cGMP with [^3 H]-cGMP as substrates. The enzyme preparation (25 μL) was incubated for 30 min at 37°C in a total assay volume of 100 μL containing 50 mM Tris-HCl (pH 7.4), 3 mM MgCl2, 1 mM dithiothreitol, 0.05% BSA, and 1 μM cAMP with 0.2 μCi [^3 H]-cAMP as a substrate alone or in the presence of 0.1 unit calmodulin with 10 μM CaCl2 or 5 μM cGMP, and 1 μM cGMP with 0.2 μCi [^3 H]-cGMP as another substrate alone or in the presence of 0.1 unit calmodulin with 10 μM CaCl2. […] The reagents and homogenate were mixed on ice, and the reaction was initiated by transferring the mixture to a water bath at 37°C. Following a 30 min incubation, the reaction was stopped by transferring the reaction vessel to a bath of boiling water for 3 min. After cooling on ice, 20 μL of a 1 mg/mL solution of Crotalus atrox snake venom was added to the reaction mixture, and the mixture was incubated at 37°C for 10 min. Unreacted [^3 H]-cAMP or [^3 H]-cGMP was removed by the addition of 500 μL of a 1-in-1 Tris-HCl (40 mM) buffer suspension of Dowex resin (1 × 2-400) with incubation on ice for 30 min. Each tube was then centrifuged at 3700 g for 2 min, and 100 μL of the supernatant was removed for liquid scintillation counting.

[3] = test system: high-affinity rolipram-binding sites (HARBSs), PDE4H; assay: Displacement of [3H]-rolipram from high-affinity rolipram-binding sites of brain cell membranes (PDE4H); design: species or system guinea pig; conditions: for EC50: 2 nM [3H]-rolipram, read-out: EC50 (PDE4H) for displacing [3H]-rolipram binding; for PDE4H/PDE4L ratio: therapeutic ratio, EC50 (PDE4H) / IC50 (PDE4L)
Protocol: When the above-mentioned guinea pigs were sacrificed, the whole brains were removed and homogenized with a glass/Teflon homogenizer (Glas-Col, Terre Haute, IN, USA) in 10 volumes of cold medium (pH 6.5) containing 20 mM Bis-Tris, 2 mM benzamidine, 2 mM EDTA, 50 mM sodium chloride, 0.1 mM PMSF, and 1 mM dithiothreitol. At 4°C, the homogenate was centrifuged at 170 g for 5 min to remove connective tissues and blood vessels. The suspended homogenate was then recentrifuged at 40,000 g for 30 min to separate the cytosolic and particulate portions. The particulate portion was resuspended in a suspension at a concentration of 400 mg/mL (wet weight/volume), after washing three times with homogenizing buffer. The particulate portion mainly consisted of cell membranes. […] Briefly, the reaction buffer consisted of 50 mM Tris-HCl and 5 mM MgCl2 (pH 7.5). […] After 1 h, the reaction was terminated by moving the reaction vessel into crushed ice. Then the reaction mixture was transferred onto Whatman GF/B glass-fiber filters, which were soaked in a 0.3% polyethyleneimine solution in a mini-funnel.

[4] = test system: PDE4; conditions: read-out: IC50 for PDE4 inhibition; cited from earlier work
[5] = test system: xylazine/ketamine-induced anesthesia; conditions: administered s.c.; cited from earlier work
[6] = test system: cytokines in BALF; assay: Cytokine levels in BALF of sensitized and challenged mice (flow cytometric CBA); type: in vivo, BABL/c mice
Protocol: (§2) According to the schedule (Figure 2), ten female BABL/c mice in each group were sensitized by an intraperitoneal (i.p.) injection of 20 μg of ovalbumin emulsified in 2.25 mg of an aluminum hydroxide gel, prepared from aluminum sulfate hexadecahydrate, in a total volume of 100 μL on days 0 and 14. Mice were challenged via the airway using 1% ovalbumin in saline for 30 min on days 28, 29, and 30 by ultrasonic nebulization. After the last ovalbumin challenge, AHR was assessed on day 32 (48 h after 1% ovalbumin provocation) in each group. Each group of mice was orally (p.o.) administered the vehicle (control), 30∼100 μmol/kg of hesperidin or 10∼100 μmol/kg of hesperidin-3′-O-methylether 2 h before and 6 and 24 h after ovalbumin provocation. For comparison, sham-treated mice were challenged with saline instead of 1% ovalbumin (nonchallenged). The vehicle, a mixture of DMSO : PEG 400 : saline (1 : 1 : 8, v/v), hesperidin, or hesperidin-3′-O-methylether was administered (p.o.) at a volume of 0.01 mL/g of body weight. AHR was assessed by barometric plethysmography using a whole-body plethysmograph (WBP) and analyzed using software of Life Science Suite P3 Analysis Modules (Gould, LDS Test and Measurement LLC, Valley View, OH, USA) in unrestrained animals. Mice were placed into the main chamber of the WBP, and the baseline enhanced pause (P enh) value was determined. Then mice were first nebulized with phosphate-buffered saline (PBS), and subsequently with increasing doses (6.25∼50 mg/mL) of methacholine for 3 min for each nebulization, followed by readings of breathing parameters for 3 min after each nebulization to determine P enh values. Twenty-four hours after P enh determination, these mice were anesthetized with pentobarbital (50 mg/kg, i.p.), and the lungs were lavaged via a tracheal tube with PBS (1 × 1.0 mL, 37°C). After lavage, blood was collected from the jugular vein and allowed to sit so that it would coagulate. The collected bronchoalveolar lavage fluid (BALF) and coagulated blood were respectively centrifuged at 630 g for 7 min and at 3700 g for 10 min at 4°C. After centrifugation, the BALF and serum supernatants were stored at −20°C until determinations of cytokines, including interleukin (IL)-2, IL-4, IL-5, tumor necrosis factor (TNF)-α, and interferon (IFN)-γ by flow cytometric methods using mouse Th1/Th2 cytokine CBA kits, and of a total immunoglobulin (Ig)E and IgG2a using ELISA kits (Pharmingen, San Diego, CA, USA) according to the respective recommendations of the manufacturers. Ovalbumin-specific IgE was measured as described previously. Wells were coated with 100 μL of ovalbumin (20 μg/mL) instead of the capture antibody. Levels are expressed in arbitrary units, where 1 arbitrary unit equals the optical density of the sample divided by the optical density of unchallenged mouse serum or BALF (standard). The BALF pellet was resuspended in ACK lysing buffer (1.658 g NH4Cl, 0.2 g KHCO3, and […] EDTA in 200 mL of water) to lyse the residual erythrocytes in each sample. The number of inflammatory cells was counted using a hemocytometer (Hausser Scientific, Horsham, PA, USA). Cytospin slides were stained and cell differentials were determined in a blinded fashion by counting at least 100 cells under light microscopy. All undetectable data (<1 pg/mL) of cytokines were taken as 0.5 pg/mL.

[7] = test system: airway hyperresponsiveness in ovalbumin-sensitized and challenged mice; assay: Ovalbumin-induced airway hyperresponsiveness, Penh by whole-body plethysmography; type: in vivo, BABL/c mice; conditions: for Penh value at the baseline / Penh value with PBS nebulization: sensitized and challenged mice; for enhancement of Penh values induced by 25 and 50 mg/mL methacholine: vs control (vehicle)
Protocol: as §2

[8] = test system: PDE3; assay: PDE3 activity in homogenate of guinea pig lungs or hearts; type: biochemical; conditions: guinea pig lung or heart homogenate; read-out: IC50 for PDE3 inhibition
Protocol: as §1

[9] = test system: inflammatory cells in BALF; assay: Inflammatory cell counts in BALF of sensitized and challenged mice; type: in vivo, BABL/c mice; conditions: for numbers of all inflammatory cells examined in BALF: 30 μmol/kg p.o.
Protocol: as §2

[10] = test system: IgE and IgG2a in serum and BALF; assay: Total and ovalbumin-specific IgE and total IgG2a in serum and BALF (ELISA); type: in vivo, BABL/c mice
Protocol: as §2

[11] = test system: PDE1; assay: PDE1 activity in homogenate of guinea pig lungs or hearts ([3H]-cAMP/[3H]-cGMP two-step procedure); type: biochemical; conditions: guinea pig lung or heart homogenate; read-out: IC50 for PDE1 inhibition
Protocol: as §1

[12] = test system: IL-4; design: method as in PMID 21287361; conditions: 10 mg/kg (16.38 μmol/kg, p.o.); similar animal model; cited from earlier work
[13] = guinea pig brain cell membranes

## CCCCOc1cc(CC2CNC(=O)N2)ccc1OC (stereo not shown) [Ro 20-1724, 4-(3-butoxy-4-methoxybenzyl)-2-imidazolidinone, reference compound]
[1]; 0.01∼1 μmol/kg s.c., 0.25 h before anesthesia
  duration of xylazine/ketamine-induced anesthesia: dose-dependently shortened
[1]; 0.03∼1 μmol/kg s.c., 0.25 h before anesthesia
  duration of xylazine/ketamine-induced anesthesia: significantly shortened
[2]
  IC50: 3.5 ± 0.2 µM
[3]; [13]
  EC50: 0.105 ± 0.0131 µM
[3]
  PDE4H/PDE4L ratio: 0.03

## COc1cc(O)c2c(c1)O[C@H](c1ccc(OC)c(OC)c1)CC2=O [hesperetin-7,3′-O-dimethylether]
[4]
  IC50: 3 µM

## COc1ccc([C@@H]2CC(=O)c3c(O)cc(O)cc3O2)cc1O [hesperetin]
[5]
  xylazine/ketamine-induced anesthesia: not influence
[4]
  IC50: 28.2 µM

## COc1ccc(C2CC(=O)c3c(O)cc(O[C@@H]4O[C@H](CO[C@@H]5O[C@@H](C)[C@H](O)[C@@H](O)[C@H]5O)[C@@H](O)[C@H](O)[C@H]4O)cc3O2)cc1OC (stereo partly shown) [hesperidin-3′-O-methylether]
[6]; 100 μmol/kg p.o.
  level of IFN-γ in BALF compared to the control: significantly enhanced
[6]; 10∼100 μmol/kg p.o.
  increases in levels of IL-2, IL-4, TNF-α in BALF: significantly suppressed
[6]; 30∼100 μmol/kg p.o.
  increase in level of IL-5 in BALF: significantly suppressed
[7]; 10 μmol/kg p.o.
  Penh value at the baseline: 2.41 ± 0.05
  Penh value with PBS nebulization: 2.41 ± 0.06
[7]; 30 μmol/kg p.o.
  suppression of AHR: significantly suppressed AHR
  Penh value at the baseline: 2.38 ± 0.06
  Penh value with PBS nebulization: 2.42 ± 0.05
[7]; 100 μmol/kg p.o.
  Penh value at the baseline: 2.41 ± 0.05
  Penh value with PBS nebulization: 2.39 ± 0.06
[7]; 30∼100 μmol/kg p.o.
  enhancement of Penh values induced by 25 and 50 mg/mL methacholine: significantly attenuated
[2]
  IC50: 13.9 ± 2.4 µM
[8]
  IC50: 13.2 ± 0.9 µM
[9]; 10 μmol/kg p.o.
  numbers of all types of inflammatory cells in BALF: unaffected
[9]
  numbers of all inflammatory cells examined in BALF: significantly suppressed
[9]; 30∼100 μmol/kg p.o.
  increases in numbers of total inflammatory cells, macrophages, lymphocytes, neutrophils, and eosinophils in BALF: significantly suppressed
[3]; [13]
  EC50: 218 ± 32.1 µM
[3]
  PDE4H/PDE4L ratio: 15.7
[10]; 30 μmol/kg p.o.
  level of total IgG2a in the serum: enhanced
  total and OVA-specific IgE levels in the serum and BALF: significantly suppressed
[10]; 30∼100 μmol/kg p.o.
  levels of total and ovalbumin-specific IgE in the serum and BALF: dose-dependently and significantly suppressed
  reduction of total IgG2a level in the serum: dose-dependently and significantly reversed
[11]
  IC50: 13.6 ± 2.3 µM

## COc1ccc([C@@H]2CC(=O)c3c(O)cc(O[C@@H]4O[C@H](CO[C@@H]5O[C@@H](C)[C@H](O)[C@@H](O)[C@H]5O)[C@@H](O)[C@H](O)[C@H]4O)cc3O2)cc1O [hesperidin]
[12]
  level of IL-4: insignificantly inhibit
[6]; 100 μmol/kg p.o.
  increase in level of TNF-α in BALF: significantly suppressed
  level of IFN-γ in BALF compared to the control: significantly enhanced
[6]; 30∼100 μmol/kg p.o.
  increases in levels of IL-2, IL-4, IL-5 in BALF: significantly suppressed
[7]; 30 μmol/kg p.o.
  suppression of AHR: but not hesperidin, significantly suppressed AHR
  Penh value at the baseline: 2.39 ± 0.06
  Penh value with PBS nebulization: 2.40 ± 0.05
[7]; 100 μmol/kg p.o.
  Penh value at the baseline: 2.41 ± 0.04
  Penh value with PBS nebulization: 2.39 ± 0.05
  enhancement of Penh values induced by 25 and 50 mg/mL methacholine: significantly attenuated
[1]; 300 μmol/kg s.c., 1 h before anesthesia
  duration of xylazine/ketamine-induced anesthesia: Neither hesperidin nor hesperidin-3′-O-methylether (each 300 μmol/kg, s.c.) influenced the duration
[2]
  IC50: > 100 µM
[8]
  IC50: > 100 µM
[9]
  numbers of all inflammatory cells examined in BALF: unaffected
[9]; 100 μmol/kg p.o.
  increases in numbers of total inflammatory cells, macrophages, lymphocytes, neutrophils, and eosinophils in BALF: significantly suppressed
[3]; [13]
  EC50: > 300 µM
[3]; 300 μM, guinea pig brain cell membranes
  displacement of 2 nM [3H]-rolipram binding on HARBSs: 27.0 ± 1.4%
[3]
  PDE4H/PDE4L ratio: 3
[10]; 30 μmol/kg p.o.
  total and OVA-specific IgE levels in the serum and BALF: but not hesperidin, significantly suppressed
[10]; 100 μmol/kg p.o.
  levels of total and ovalbumin-specific IgE in the BALF and serum: significantly suppressed
  reduction of total IgG2a level in the serum: significantly reversed
[11]
  IC50: > 100 µM

## Cc1[nH]c(=O)c(C#N)cc1-c1ccncc1 [milrinone, reference compound]
[8]
  IC50: 2.7 ± 0.8 µM

## CCOC(=O)C1=C[C@]2(CC)CCCN3CCc4c(n1c1ccccc41)[C@@H]32 [vinpocetine, reference compound]
[11]
  IC50: 30.8 ± 1.1 µM
